Test results from US7799821B2, “Therapeutic compounds” (Allergan, Inc., priority 2004, dated 2010).
Read-outs that look alike come from different tables or passages of the source.

Tests used:
Format in all cases: cell-based
[1] = biological target: T1, hEP2/Gqs5 (Homo sapiens, UniProt P43116); assay: FLIPR calcium signal, hEP2
T1 construct: expressed in transfected cells; host or cells: HEK-293(EBNA)
Method in brief: (§1)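 HEK-293(EBNA) cells stably expressing the recombinant human receptor were loaded with 2 μM Fluo-4 AM for 45 min and read on FLIPR at 37° C in HBSS-HEPES pH 7.4. Peak fluorescence rise was expressed relative to buffer and standard agonist controls (BW245C, PGE2 or U-46619 by receptor); compounds were run 10^−5 to 10^−11 M in duplicate, n≧3.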

[2] = biological target: T2, hEP3A/Gqi5 (Homo sapiens, UniProt P43115); assay: FLIPR calcium signal, hEP3A
T2 construct: expressed in transfected cells; host or cells: HEK-293(EBNA)
T2 sequence (P43115 1-390): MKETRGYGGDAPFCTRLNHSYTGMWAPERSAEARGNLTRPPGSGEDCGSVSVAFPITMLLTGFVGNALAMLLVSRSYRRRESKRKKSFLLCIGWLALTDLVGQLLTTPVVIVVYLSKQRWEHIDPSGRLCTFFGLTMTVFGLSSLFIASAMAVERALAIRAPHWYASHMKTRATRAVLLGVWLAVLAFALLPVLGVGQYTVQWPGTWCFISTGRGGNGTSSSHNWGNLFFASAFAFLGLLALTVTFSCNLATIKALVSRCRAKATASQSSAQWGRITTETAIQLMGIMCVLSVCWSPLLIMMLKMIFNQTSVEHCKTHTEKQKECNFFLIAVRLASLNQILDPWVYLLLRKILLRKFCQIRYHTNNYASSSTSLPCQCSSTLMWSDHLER
Method in brief: as §1

[3] = biological target: T3, HEK-EBNA cells expressing a PG EP2 receptor subtype (Homo sapiens, UniProt P43116); assay: cAMP assay, EP2
T3 construct: expressed in transfected cells; host or cells: HEK-EBNA
Procedure: A 384-well drug plate was prepared to contain 6 test compounds, PGE2 and cAMP in 16 serial dilutions in triplicate, using a Biomek station. HEK-EBNA cells expressing a target PG receptor subtype (EP2 or EP4) were suspended in a stimulation buffer (HBSS, 0.1% BSA, 0.5 mM IBMX and 5 mM HEPES, pH 7.4) in a density of 10^4 cells/5 μl. The reaction was initiated by mixing 5 μL drug dilutions with 5 μl of HEK-EBNA cells in a well, carried out for 30 min at room temperature, and followed by the addition of 5 μl anti-cAMP acceptor beads in the control buffer with Tween-20 (25 mM NaCl, 0.03% Tween-20, 5 mM HEPES, pH7.4). After 30 min in the dark at room temperature, the mixtures were incubated with 15 μl biotinylated-cAMP/strepavidin donor beads in Lysis/Detection buffer (0.1% BSA, 0.3% Tween-20 and 5 mM HEPES, pH7.4) for 45 min at the room temperature. Fluorescence changes were read using a Fusion-alpha HT microplate reader.

[4] = biological target: T4, hEP4/Gqs5 (Homo sapiens, UniProt P35408); assay: FLIPR calcium signal, hEP4; details: for EC50: unit inferred, read-out: EP4 data flipr EC50
T4 construct: expressed in transfected cells; host or cells: HEK-293(EBNA)
Method in brief: as §1

[5] = biological target: T5, hEP1 (Homo sapiens, UniProt P34995); assay: FLIPR calcium signal, hEP1; details: for EC50: read-out: Other Receptors EC50 hEP1
T5 construct: expressed in transfected cells; host or cells: HEK-293(EBNA)
T5 sequence (P34995 1-402): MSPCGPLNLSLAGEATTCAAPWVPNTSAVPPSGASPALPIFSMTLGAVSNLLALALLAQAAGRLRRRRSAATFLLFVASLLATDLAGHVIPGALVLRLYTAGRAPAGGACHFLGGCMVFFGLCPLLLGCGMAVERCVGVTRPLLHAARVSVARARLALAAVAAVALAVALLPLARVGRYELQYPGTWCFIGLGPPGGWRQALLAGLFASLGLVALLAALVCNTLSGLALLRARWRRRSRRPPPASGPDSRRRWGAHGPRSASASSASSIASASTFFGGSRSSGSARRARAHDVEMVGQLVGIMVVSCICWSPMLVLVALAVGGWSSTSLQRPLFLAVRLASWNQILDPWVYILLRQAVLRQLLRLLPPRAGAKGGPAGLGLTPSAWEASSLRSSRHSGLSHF
Procedure: (§2) HEK-293(EBNA) cells, stably expressing one type or subtype of recombinant human prostaglandin receptors (prostaglandin receptors expressed: hDP/Gqs5; hEP1; hEP2/Gqs5; hEP3A/Gqi5; hEP4/Gqs5; hFP; hIP; hTP), were cultured in 100 mm culture dishes in high-glucose DMEM medium containing 10% fetal bovine serum, 2 mM 1-glutamine, 250 μg/ml geneticin (G418) and 200 μg/ml hygromycin B as selection markers, and 100 units/ml penicillin G, 100 μg/ml streptomycin and 0.25 μg/ml amphotericin B. • (b) Calcium Signal Studies on the FLIPR™
(§3) Cells were seeded at a density of 5×10^4 cells per well in Biocoat® Poly-D-lysine-coated black-wall, clear-bottom 96-well plates (Becton-Dickinson) and allowed to attach overnight in an incubator at 37° C. Cells were then washed two times with HBSS-HEPES buffer (Hanks Balanced Salt Solution without bicarbonate and phenol red, 20 mM HEPES, pH 7.4) using a Denley Cellwash plate washer (Labsystems). After 45 minutes of dye-loading in the dark, using the calcium-sensitive dye Fluo-4 AM at a final concentration of 2 μM, plates were washed four times with HBSS-HEPES buffer to remove excess dye leaving 100 μl in each well. Plates were re-equilibrated to 37° C. for a few minutes.
(§4) Cells were excited with an Argon laser at 488 nm, and emission was measured through a 510-570 nm bandwidth emission filter (FLIPR™, Molecular Devices, Sunnyvale, Calif.). Drug solution was added in a 50 μl volume to each well to give the desired final concentration. The peak increase in fluorescence intensity was recorded for each well. On each plate, four wells each served as negative (HBSS-HEPES buffer) and positive controls (standard agonists: BW245C (hDP); PGE2 (hEP1; hEP2/Gqs5; hEP3A/Gqi5; hEP4/Gqs5); PGF2α (hFP); carbacyclin (hIP); U-46619 (hTP), depending on receptor). The peak fluorescence change in each drug-containing well was then expressed relative to the controls.
(§5) Compounds were tested in a high-throughput (HTS) or concentration-response (CoRe) format. In the HTS format, forty-four compounds per plate were examined in duplicates at a concentration of 10^−5 M. To generate concentration-response curves, four compounds per plate were tested in duplicates in a concentration range between 10^−5 and 10^−11 M. The duplicate values were averaged. In either, HTS or CoRe format each compound was tested on at least 3 separate plates using cells from different passages to give an n≧3.

[6] = biological target: T6, hIP (Homo sapiens, UniProt P43119); assay: FLIPR calcium signal, hIP; details: for EC50: read-out: Other Receptors EC50 hIP
T6 construct: expressed in transfected cells; host or cells: HEK-293(EBNA)
Procedure: as §2, §3, §4, §5

[7] = unit inferred, other columns of the table in nM, read-out: EP2 data flipr EC50
[8] = read-out: Other Receptors EC50 hEP3A
[9] = unit inferred, read-out: EP2 data cAMP EC50

T4 sequence (P35408 whole entry): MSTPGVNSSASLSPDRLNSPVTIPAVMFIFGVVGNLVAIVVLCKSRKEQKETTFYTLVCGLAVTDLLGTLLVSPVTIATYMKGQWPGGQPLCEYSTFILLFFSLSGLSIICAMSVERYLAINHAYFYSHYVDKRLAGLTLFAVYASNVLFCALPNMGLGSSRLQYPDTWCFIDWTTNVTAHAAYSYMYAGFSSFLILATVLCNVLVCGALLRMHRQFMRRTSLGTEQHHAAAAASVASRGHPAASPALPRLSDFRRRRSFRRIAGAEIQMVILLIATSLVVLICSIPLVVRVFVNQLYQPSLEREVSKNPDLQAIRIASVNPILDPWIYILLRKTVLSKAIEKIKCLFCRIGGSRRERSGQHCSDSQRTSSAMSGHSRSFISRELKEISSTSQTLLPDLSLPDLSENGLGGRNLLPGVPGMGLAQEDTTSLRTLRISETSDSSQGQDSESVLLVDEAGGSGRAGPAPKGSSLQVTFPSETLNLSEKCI
T1 sequence (P43116 whole entry): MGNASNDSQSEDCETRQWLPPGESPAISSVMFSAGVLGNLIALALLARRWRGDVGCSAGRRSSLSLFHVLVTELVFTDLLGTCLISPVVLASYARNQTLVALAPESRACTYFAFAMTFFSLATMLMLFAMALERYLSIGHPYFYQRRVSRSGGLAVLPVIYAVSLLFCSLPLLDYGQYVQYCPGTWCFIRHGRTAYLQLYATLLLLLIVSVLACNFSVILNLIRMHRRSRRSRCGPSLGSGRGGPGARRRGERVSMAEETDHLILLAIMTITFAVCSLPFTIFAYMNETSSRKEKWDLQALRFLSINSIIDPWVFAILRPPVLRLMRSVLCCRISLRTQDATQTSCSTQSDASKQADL
T3 sequence (P43116 whole entry): as above
T6 sequence (P43119 whole entry): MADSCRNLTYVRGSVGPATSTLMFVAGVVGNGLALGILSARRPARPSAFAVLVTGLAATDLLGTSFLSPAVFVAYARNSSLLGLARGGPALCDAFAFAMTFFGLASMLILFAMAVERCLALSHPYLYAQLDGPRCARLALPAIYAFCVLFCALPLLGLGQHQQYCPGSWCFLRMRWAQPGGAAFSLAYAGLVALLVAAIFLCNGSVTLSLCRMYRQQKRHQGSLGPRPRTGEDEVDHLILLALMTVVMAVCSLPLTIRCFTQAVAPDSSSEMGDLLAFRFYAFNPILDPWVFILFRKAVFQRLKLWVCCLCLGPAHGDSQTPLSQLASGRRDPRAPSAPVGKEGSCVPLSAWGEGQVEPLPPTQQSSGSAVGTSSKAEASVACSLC

## CCCCCC(O)c1ccc(N2C(=O)CC[C@@H]2CCCc2ccc(C(=O)O)s2)cc1 (single isomer, unassigned) [drawing 178]
[1]; [7]
  EC50: 6 nM
[2]; [8]
  EC50: 12 nM
[3]; [9]
  EC50: 0.19 nM
[4]
  EC50: > 10000 nM

## CCCCCC(O)c1ccc(N2C(=O)CC[C@@H]2COCc2ccc(C(=O)O)s2)cc1 (single isomer, unassigned) [drawing 177]
[1]; [7]
  EC50: 15 nM
[2]; [8]
  EC50: 1200 nM
[3]; [9]
  EC50: 1.5 nM
[4]
  EC50: > 10000 nM

## CCCCCC(O)c1ccc(N2C(=O)CC[C@@H]2CCCc2ccc(C(=O)O)s2)cc1 (stereo partly drawn) [drawing 145]
[1]; [7]
  EC50: 5 nM
[2]; [8]
  EC50: 155 nM
[3]; [9]
  EC50: 0.55 nM

## CC(C)(C)c1ccc(N2C(=O)CC[C@@H]2CCCCCCC(=O)O)cc1
[1]; [7]
  EC50: 4120 nM
[2]; [8]
  EC50: 19500 nM
[3]; [9]
  EC50: 548 nM
[5]
  EC50: > 10000 nM
[4]
  EC50: > 10000 nM

## CCCCCC(O)c1ccc(N2C(=O)CC[C@@H]2CCCc2ccc(C(=O)O)s2)cc1 (single isomer, unassigned) [drawing 179]
[1]; [7]
  EC50: 1.6 nM
[2]; [8]
  EC50: 156 nM
[3]; [9]
  EC50: 0.15 nM
[4]
  EC50: > 10000 nM

## CC(C)(C)c1ccc(N2C(=O)CC[C@@H]2COCc2ccc(C(=O)O)s2)cc1
[1]; [7]
  EC50: 1340 nM
[2]; [8]
  EC50: 19200 nM
[3]; [9]
  EC50: 51 nM
[5]
  EC50: > 10000 nM
[4]
  EC50: > 10000 nM

## CCCCCC(C)c1ccc([C@@H]2[C@@H](C/C=C\CCCC(=O)O)[C@H](C#N)C[C@H]2C)cc1 (stereo partly drawn)
[1]; Table 3, third part, value outside parentheses, read-out: Ca2+ Signal-EC50 (nM) EP2
  EC50: 34 nM
[2]; Table 3, third part, read-out: Ca2+ Signal-EC50 (nM) EP3
  EC50: 10000 nM
[6]; Table 3, third part
  Ca2+ Signal-EC50 (nM) IP: not active
[3]; Table 3, third part, value in parentheses, read-out: EP2 EC50 in a cAMP mediated assay
  EC50: 4 nM
[5]; Table 3, third part
  Ca2+ Signal-EC50 (nM) EP1: not active
[4]; Table 3, third part
  Ca2+ Signal-EC50 (nM) EP4: not active

## CC(C)(C)c1ccc(N2C(=O)CC[C@@H]2COCc2ccc(C(=O)O)o2)cc1
[1]; [7]
  EC50: 442 nM
[2]; [8]
  EC50: > 10000 nM
[3]; [9]
  EC50: 28 nM
[4]
  EC50: > 10000 nM

## CCCCCCC(O)c1ccc(N2C(=O)CC[C@@H]2COCc2ccc(C(=O)O)s2)cc1 (single isomer, unassigned) [drawing 152]
[1]; [7]
  EC50: 134 nM
[2]; [8]
  EC50: 71 nM
[3]; [9]
  EC50: 7 nM

## CCCCCCC(O)c1ccc(N2C(=O)CC[C@@H]2CCCc2ccc(C(=O)O)s2)cc1 (single isomer, unassigned) [drawing 156]
[1]; [7]
  EC50: 5 nM
[2]; [8]
  EC50: 33 nM
[6]
  EC50: > 10000 nM
[3]; [9]
  EC50: 0.6 nM

## CCCCCC(O)c1ccc(N2C(=O)CC[C@@H]2CCCc2ccc(C(=O)O)s2)cc1 (stereo partly drawn) [drawing 173]
[1]; [7]
  EC50: 5 nM
[2]; [8]
  EC50: 155 nM
[3]; [9]
  EC50: 0.55 nM

## CCCCCC(O)c1ccc(N2C(=O)CC[C@@H]2COCc2ccc(C(=O)O)s2)cc1 (single isomer, unassigned) [drawing 176]
[1]; [7]
  EC50: 62 nM
[2]; [8]
  EC50: 153 nM
[3]; [9]
  EC50: 5 nM
[4]
  EC50: > 10000 nM

## CCCCCC(O)c1ccc(N2C(=O)CC[C@@H]2CCCc2ccc(C(=O)O)s2)cc1 (single isomer, unassigned) [drawing 180]
[1]; [7]
  EC50: 134 nM
[2]; [8]
  EC50: 71 nM
[3]; [9]
  EC50: 7 nM

## CCCCCC(O)c1ccc(N2C(=O)CC[C@@H]2COCc2ccc(C(=O)O)s2)cc1 (single isomer, unassigned) [drawing 148]
[1]; [7]
  EC50: 62 nM
[2]; [8]
  EC50: 153 nM
[3]; [9]
  EC50: 5 nM
[4]
  EC50: > 10000 nM

## CCCCCCC(O)c1ccc(N2C(=O)CC[C@@H]2CCCc2ccc(C(=O)O)s2)cc1 (single isomer, unassigned) [drawing 183]
[1]; [7]
  EC50: 16 nM
[2]; [8]
  EC50: 7 nM
[3]; [9]
  EC50: 1.4 nM
[5]
  EC50: 6950 nM

## CCCCCC(O)c1ccc(N2C(=O)CC[C@@H]2CCCc2ccc(C(=O)O)s2)cc1 (single isomer, unassigned) [drawing 151]
[1]; [7]
  EC50: 1.6 nM
[2]; [8]
  EC50: 156 nM
[3]; [9]
  EC50: 0.15 nM
[4]
  EC50: > 10000 nM

## CCCCCCC(O)c1ccc(N2C(=O)CC[C@@H]2CCCc2ccc(C(=O)O)s2)cc1 (single isomer, unassigned) [drawing 184]
[1]; [7]
  EC50: 5 nM
[2]; [8]
  EC50: 33 nM
[6]
  EC50: > 10000 nM
[3]; [9]
  EC50: 0.6 nM

## CCCCCCC(O)c1ccc(N2C(=O)CC[C@@H]2CCCc2ccc(C(=O)O)s2)cc1 (single isomer, unassigned) [drawing 155]
[2]; [8]
  EC50: 7 nM
[3]; [9]
  EC50: 1.4 nM
[5]
  EC50: 6950 nM

## CCCCCC(=O)c1ccc(N2C(=O)CC[C@@H]2CCCc2ccc(C(=O)O)s2)cc1
[1]; [7]
  EC50: 16 nM
[2]; [8]
  EC50: 2340 nM
[3]; [9]
  EC50: 1.6 nM
[4]
  EC50: > 10000 nM
